Results: PubChem BioAssay AID1963958 (Molecular Pharmacology Branch, DTP, NCI, 2024)

System: MDA-MB-231 multicell spheroids, viability
Test: Anticancer human tumor MDA-MB-231 cell line growth inhibition [PI3K];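 note: spheroids exposed to agents for seven days before reading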;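 for viability, T/C: percent of vehicle control luminescence with DMSO treated spheroids as 100%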
Settings: for IC50: curve of first compound; for viability, T/C: stronger effect = lower value
Source text: Combinatorial screen of targeted agents with the PI3K inhibitors inavolisib, alpelisib, duvelisib, and copanlisib in multi-cell type tumor spheroids
A high-throughput screen of multi-cell type tumor spheroids was designed to identify active combinations of targeted small molecules and PI3K pathway inhibitors. Complex spheroids include a stromal component modeled by human endothelial cells (HUVEC) and fibroblasts modeled by human mesenchymal stem cells (MSCs). The concentration ranges selected for each drug and investigational agent were based upon clinically achievable concentrations if the clinical Cmax of the agent was known.
Compounds. The drugs and investigational agents: inavolisib (NSC800729), alpelisib (NSC765974), duvelisib (NSC772469), copanlisib (NSC816437), ipatasertib (NSC767898), afuresertib (NSC778305), talazoparib (NSC767125), sapanisertib (NSC764658), selumetinib (NSC741078), tovorafenib (DAY101, NSC766906), vemurafenib (NSC761431), ravoxertinib (NSC781343), sotorasib (NSC818433), MRTX1133 (NSC 836407), abemaciclib (NSC 768073), palbociclib (NSC758247), venetoclax (NSC 766270), SY5609 (NSC837396), enzalutamide (NSC755605), and darolutamide (NSC825331), were obtained from the National Cancer Institute (NCI) Developmental Therapeutics Program Chemical Repository. The FDA-approved anticancer drug set is available from the NCI Developmental Therapeutics Program. […] The stock solutions were prepared in dimethyl sulfoxide (DMSO, Sigma-Aldrich, St. Louis, MO, cat. D2650) at 800-fold the tested concentration and stored at -70 degrees C prior to their use. All drugs and investigational agents were tested over a range starting from a high concentration at or near the clinical Cmax and decreasing in half-log increments. If the clinical Cmax for an agent had not been determined, the highest concentration tested was 10 microM.
Cell Culture. All cells were maintained in an incubator at 37 degrees C and 5% CO2 with 95% humidity. The PDC lines were cultured according to standard operating procedures established by the NCI PDMR (https://pdmr.cancer.gov/sops/default.htm). All PDCs were thawed and cultured in Matrigel-coated flasks prepared with a working solution of 1X Ham's F-12 nutrient mix, without supplementation (Invitrogen, Waltham, MA, cat. 11765054), 100 U/mL penicillin-streptomycin (Invitrogen, cat. 15140122), and 2.5% Matrigel (Corning Inc., Corning, NY, cat. 354248) for the first three passages. The 354836-022-R-J1-PDC, 475296-252-R-J1-PDC, and 997726-040-R-J2-PDC lines were cultured in 6A media, which includes advanced DMEM/F-12 (Thermo Fisher Scientific, cat. 12634028), 10 mM HEPES (Thermo Fisher Scientific, cat. 15630080), 1X GlutaMAX supplement (Thermo Fisher Scientific, cat. 35050061), 0.1 mg/mL primocin (InvivoGen, San Diego, CA, cat. ant-pm-2), 10% defined fetal bovine serum, heat inactivated (HyClone Laboratories Inc., Logan, UT, cat. SH30070.03HI), 50% L-WRN conditioned media (ATCC, cat. CRL-3276), 1.25 mM N-Acetyl-L-cysteine (Sigma-Aldrich, cat. A9165), 10 mM nicotinamide (Sigma-Aldrich, cat. N0636), 1X B-27 supplement (Thermo Fisher Scientific, cat. 17504044), 1X N-2 supplement (Thermo Fisher Scientific, cat. 17502048), and 10 microM Y-27632 dihydrochloride (Tocris Bioscience, Bristol, United Kingdom, cat. 1254). The 624824-186-R-J2-PDC line was cultured in 6C/Colon 1B media, which includes all 6A media components plus 50 ng/mL human EGF recombinant protein (Thermo Fisher Scientific, cat. PHG0311). […]

[1] = second compound 0.00316 µM, first compound 0.0316 µM
[2] = second compound 0.00316 µM, first compound 0.1 µM
[3] = second compound 0.01 µM, first compound 0.0316 µM
[4] = second compound 0.01 µM, first compound 0.1 µM
[5] = second compound 0.0316 µM, first compound 0.0316 µM
[6] = second compound 0.0316 µM, first compound 0.1 µM
[7] = second compound 0.1 µM, first compound 0.0316 µM
[8] = second compound 0.1 µM, first compound 0.1 µM
[9] = second compound 0.316 µM, first compound 0.0316 µM
[10] = second compound 0.316 µM, first compound 0.1 µM
[11] = second compound 1 µM, first compound 0.0316 µM
[12] = second compound 1 µM, first compound 0.1 µM
[13] = second compound 0.00316 µM, first compound 0.316 µM
[14] = second compound 0.00316 µM, first compound 1 µM
[15] = second compound 0.00316 µM, first compound 3.16 µM
[16] = second compound 0.00316 µM, first compound 10 µM
[17] = second compound 0.01 µM, first compound 0.316 µM
[18] = second compound 0.01 µM, first compound 1 µM
[19] = second compound 0.01 µM, first compound 3.16 µM
[20] = second compound 0.01 µM, first compound 10 µM
[21] = second compound 0.0316 µM, first compound 0.316 µM
[22] = second compound 0.0316 µM, first compound 1 µM
[23] = second compound 0.0316 µM, first compound 3.16 µM
[24] = second compound 0.0316 µM, first compound 10 µM
[25] = second compound 0.1 µM, first compound 0.316 µM
[26] = second compound 0.1 µM, first compound 1 µM
[27] = second compound 0.1 µM, first compound 3.16 µM
[28] = second compound 0.1 µM, first compound 10 µM
[29] = second compound 0.316 µM, first compound 0.316 µM
[30] = second compound 0.316 µM, first compound 1 µM
[31] = second compound 0.316 µM, first compound 3.16 µM
[32] = second compound 0.316 µM, first compound 10 µM
[33] = second compound 1 µM, first compound 0.316 µM
[34] = second compound 1 µM, first compound 1 µM
[35] = second compound 1 µM, first compound 3.16 µM
[36] = second compound 1 µM, first compound 10 µM

`CC(C)n1nc(-c2ccc3oc(N)nc3c2)c2c(N)ncnc21` + CC(Nc1ccc2c(c1)OCCn1cc(N3C(=O)OCC3C(F)F)nc1-2)C(N)=O gave an IC50 (second compound 0.00316 µM) of 34.9 nM, an IC50 (second compound 0.01 µM) of 27.5 nM and an IC50 (second compound 0.0316 µM) of 12.8 nM. The IC50 (second compound 0.1 µM) was 5.12 nM, the IC50 (second compound 0.316 µM) was 3.46 nM and the IC50 (second compound 1 µM) was 2.13 nM. The viability, T/C (second compound 0.00316 µM, first compound 0.000316 µM) was 101%, the viability, T/C (second compound 0.00316 µM, first compound 0.001 µM) was 92.6% and the viability, T/C (second compound 0.00316 µM, first compound 0.00316 µM) was 94.5%. It also gave a viability, T/C (second compound 0.00316 µM, first compound 0.01 µM) of 77.4%, a viability, T/C [1] of 51.8% and a viability, T/C [2] of 31.5%. It also gave a viability, T/C (second compound 0.01 µM, first compound 0.000316 µM) of 89.1%, a viability, T/C (second compound 0.01 µM, first compound 0.001 µM) of 93.7% and a viability, T/C (second compound 0.01 µM, first compound 0.00316 µM) of 89%. It also gave a viability, T/C (second compound 0.01 µM, first compound 0.01 µM) of 66%, a viability, T/C [3] of 50% and a viability, T/C [4] of 30.5%. The viability, T/C (second compound 0.0316 µM, first compound 0.000316 µM) was 81%, the viability, T/C (second compound 0.0316 µM, first compound 0.001 µM) was 74.6% and the viability, T/C (second compound 0.0316 µM, first compound 0.00316 µM) was 65.4%. It also gave a viability, T/C (second compound 0.0316 µM, first compound 0.01 µM) of 54.2%, a viability, T/C [5] of 37.7% and a viability, T/C [6] of 25.5%. The viability, T/C (second compound 0.1 µM, first compound 0.000316 µM) was 68.6%, the viability, T/C (second compound 0.1 µM, first compound 0.001 µM) was 63% and the viability, T/C (second compound 0.1 µM, first compound 0.00316 µM) was 55.2%. The viability, T/C (second compound 0.1 µM, first compound 0.01 µM) was 42.7%, the viability, T/C [7] was 33.2% and the viability, T/C [8] was 21.3%. It also gave a viability, T/C (second compound 0.316 µM, first compound 0.000316 µM) of 65.3%, a viability, T/C (second compound 0.316 µM, first compound 0.001 µM) of 60.2% and a viability, T/C (second compound 0.316 µM, first compound 0.00316 µM) of 49.5%. It also gave a viability, T/C (second compound 0.316 µM, first compound 0.01 µM) of 41.7%, a viability, T/C [9] of 28.5% and a viability, T/C [10] of 19.9%. The viability, T/C (second compound 1 µM, first compound 0.000316 µM) was 58.8%, the viability, T/C (second compound 1 µM, first compound 0.001 µM) was 54.7% and the viability, T/C (second compound 1 µM, first compound 0.00316 µM) was 48.3%. For the same molecule, the viability, T/C (second compound 1 µM, first compound 0.01 µM) was 36.6%, the viability, T/C [11] was 27.9% and the viability, T/C [12] was 17.3%.

With `CC1(C)CCC(CN2CCN(c3ccc(C(=O)NS(=O)(=O)c4ccc(NCC5CCOCC5)c([N+](=O)[O-])c4)c(Oc4cnc5[nH]ccc5c4)c3)CC2)=C(c2ccc(Cl)cc2)C1` + CC(Nc1ccc2c(c1)OCCn1cc(N3C(=O)OCC3C(F)F)nc1-2)C(N)=O the IC50 (second compound 0.00316 µM) was 6900 nM, the IC50 (second compound 0.01 µM) was 7070 nM and the IC50 (second compound 0.0316 µM) was 6410 nM. For the same molecule, the IC50 (second compound 0.1 µM) was 5450 nM, the IC50 (second compound 0.316 µM) was 4720 nM and the IC50 (second compound 1 µM) was 4360 nM. For the same molecule, the viability, T/C [1] was 95.8%, the viability, T/C [2] was 92.2% and the viability, T/C [13] was 104%. The viability, T/C [14] was 111%, the viability, T/C [15] was 105% and the viability, T/C [16] was 25.5%. The viability, T/C [3] was 94.1%, the viability, T/C [4] was 99.1% and the viability, T/C [17] was 94.9%. For the same molecule, the viability, T/C [18] was 96.4%, the viability, T/C [19] was 92.2% and the viability, T/C [20] was 31.8%. The viability, T/C [5] was 83.8%, the viability, T/C [6] was 77.5% and the viability, T/C [21] was 79.3%. The viability, T/C [22] was 85.8%, the viability, T/C [23] was 86.6% and the viability, T/C [24] was 29.5%. For the same molecule, the viability, T/C [7] was 77.2%, the viability, T/C [8] was 69.1% and the viability, T/C [25] was 71.4%. For the same molecule, the viability, T/C [26] was 69.6%, the viability, T/C [27] was 69.8% and the viability, T/C [28] was 28.2%. For the same molecule, the viability, T/C [9] was 64%, the viability, T/C [10] was 64.6% and the viability, T/C [29] was 61.1%. For the same molecule, the viability, T/C [30] was 66.4%, the viability, T/C [31] was 70.6% and the viability, T/C [32] was 21.4%. For the same molecule, the viability, T/C [11] was 64.9%, the viability, T/C [12] was 60.2% and the viability, T/C [33] was 60.8%. It also gave a viability, T/C [34] of 60.2%, a viability, T/C [35] of 65.5% and a viability, T/C [36] of 18.3%.

For `C[C@@H](NC(=O)c1ncnc(N)c1Cl)c1ncc(C(=O)Nc2cc(C(F)(F)F)c(Cl)cn2)s1` + CC(Nc1ccc2c(c1)OCCn1cc(N3C(=O)OCC3C(F)F)nc1-2)C(N)=O, the IC50 (second compound 0.00316 µM) was > 10000 nM, the IC50 (second compound 0.01 µM) was > 10000 nM and the IC50 (second compound 0.0316 µM) was 3490 nM. It also gave an IC50 (second compound 0.1 µM) of 1360 nM, an IC50 (second compound 0.316 µM) of 625 nM and an IC50 (second compound 1 µM) of 337 nM. The viability, T/C [1] was 119%, the viability, T/C [2] was 93% and the viability, T/C [13] was 86.7%. The viability, T/C [14] was 86.9%, the viability, T/C [15] was 73.9% and the viability, T/C [16] was 50.6%. The viability, T/C [3] was 111%, the viability, T/C [4] was 94.2% and the viability, T/C [17] was 81.7%. It also gave a viability, T/C [18] of 72.1%, a viability, T/C [19] of 68.2% and a viability, T/C [20] of 49%. It also gave a viability, T/C [5] of 91.3%, a viability, T/C [6] of 75.1% and a viability, T/C [21] of 66.1%. It also gave a viability, T/C [22] of 62.7%, a viability, T/C [23] of 52.3% and a viability, T/C [24] of 40.8%. It also gave a viability, T/C [7] of 83%, a viability, T/C [8] of 66.4% and a viability, T/C [25] of 58.8%. The viability, T/C [26] was 54.1%, the viability, T/C [27] was 48.3% and the viability, T/C [28] was 32.6%. For the same molecule, the viability, T/C [9] was 77.8%, the viability, T/C [10] was 66.3% and the viability, T/C [29] was 54.8%. It also gave a viability, T/C [30] of 45.6%, a viability, T/C [31] of 41% and a viability, T/C [32] of 33%. The viability, T/C [11] was 67.4%, the viability, T/C [12] was 55.4% and the viability, T/C [33] was 49.5%. The viability, T/C [34] was 44.8%, the viability, T/C [35] was 38.4% and the viability, T/C [36] was 28.8%.
